From patent US7192905B1, “Organophosphate insecticide synergists for fly and tick control” (priority 2003, dated 2007)

Experiments:
[1] = test system: Santa Luiza strain of the southern cattle tick, larvae; test: FAO larval packet test, Santa Luiza strain (Example 5); details: for resistance of the strain: Santa Luiza strain
[2] = test system: horn fly (Kerrville strain, susceptible reference strain); test: Horn fly adult treated filter paper bioassay, Kerrville strain (Example 1); format: in vivo, Haematobia irritans irritans; details: mortality after 2 hours; for effect on toxicity of chlorpyrifos: combined with chlorpyrifos 8.0 μg/cm^2; for effect on toxicity of coumaphos: combined with coumaphos 10 μg/cm^2; for effect on toxicity of pirimiphos-methyl: combined with pirimiphos-methyl 3.0 μg/cm^2
Method: (§1) The horn fly strain used in this trial (referred to as the Kerrville strain) is an in vitro strain being maintained on citrated bovine blood, and serves as a susceptible reference strain. Adult flies were exposed to organophosphate pesticide alone or in combination with varying ratios of atrazine or propazine (shown in FIGS. 1–8). Concentrations of diazinon, pirimiphos-methyl, chlorpyrifos and coumaphos were 2.8, 3.0, 8.0, and 10 μg/cm^2, respectively (measured as the amount of pesticide applied per unit area of filter paper). Compounds were dissolved in acetone and applied onto filter paper, which was then placed into petri dishes with the adult flies and held at room temperature under normal lighting conditions. Flies were examined for mortality after 2 hours.

[3] = test system: horn fly (Oklahoma strain, challenged with diazinon); test: Horn fly adult treated filter paper bioassay, Oklahoma strain (Example 2); format: in vivo, Haematobia irritans irritans; details: for effect on coumaphos toxicity / effect on diazinon toxicity / effect on pirimiphos-methyl toxicity: triazine applied as 1% w/v solution, mortality after 2 hours; for effect on toxicity of chlorpyrifos: very high chlorpyrifos levels (140.2 μg/cm^2 and above), triazine 1% w/v
Method: as §1, with “Concentrations of diazinon, pirimiphos-methyl, chlorpyrifos and coumaphos were 2.8, 3.0, 8.0, and 10 μg/cm^2, respectively (measured as the amount of pesticide applied per unit area of filter paper).” left out
The bioassays of Example 1 were repeated using an in vivo strain (referred to as the Oklahoma strain) maintained on steers. This horn fly strain was established using eggs from flies collected from cattle at an Oklahoma State University research ranch. The strain is maintained in vivo on steers at the USDA-ARS-KBUSLIRL, and has been challenged with diazinon. Conditions for the bioassay were the same as Example 1 except for the addition of the organophosphate fenthion, and the triazine synergists were applied as a 1% w/v solution.

[4] = test system: San Roman strain of the southern cattle tick, larvae; test: FAO larval packet test, San Roman strain (Example 3)
Method: The strain used in these bioassays was the San Roman strain of the southern cattle tick (Boophilus microplus). […] The FAO larval packet test (LPT) was used to measure the susceptibility of tick larvae to acaricides. Dilutions of acaricide were prepared, dissolving the acaricide in trichloroethylene, then mixed with olive oil (ratio=2:1). A volume of 0.7 ml of the dilution was applied uniformly onto a piece of filter paper, and allowed to dry for 2 hr (trichloroethylene evaporates). The treated filter papers were folded into “packets” using bulldog clips, and approximately 100 larvae were added into each of “pockets”, which were then kept in a incubator (27° C., 90% RH) for 24 h before reading (# of dead and alive were counted under a magnifying glass).
In a first trial, tick larvae were exposed to 1% atrazine alone or in combination with 0.3, 0.6, or 1.2% w/v coumaphos.
In a second trial, tick larvae were exposed to varying concentrations of atrazine with either 0.3% coumaphos, 0.1 or 0.05% diazinon, or 0.01% coumaphos.

[5] = test system: San Felipe strain of the southern cattle tick, larvae; test: FAO larval packet test, San Felipe strain (Example 4); format: in vivo, Boophilus microplus
Method: The bioassays were conducted using the same process as described in Example 3, using the San Felipe strain of the southern cattle tick.

[6] = test system: Munoz strain of the southern cattle tick, larvae; test: FAO larval packet test, Munoz strain (Example 7)
brown dog tick larvae = test: FAO larval packet test, brown dog tick (Example 8); details: for effect on larvae: coumaphos alone
[7] = test system: Pesqueria strain of the southern cattle tick, larvae; test: FAO larval packet test, Pesqueria strain (Example 6); details: for mortality: 0.1% coumaphos alone; for resistance of the strain: Pesqueria strain

Cc1ccc(/N=C/N(C)/C=N/c2ccc(C)cc2C)c(C)c1 [amitraz]
resistance of the strain [1]: 70 fold

CCNc1nc(Cl)nc(NC(C)C)n1 [atrazine]
effect on toxicity of chlorpyrifos [2]: neither atrazine nor propazine had any effect
effect on toxicity of coumaphos [2]: reduced the toxicity
effect on diazinon activity (fly mortality) ([2]; combined with diazinon 2.8 μg/cm^2, even at low ratio 0.25/1): significant synergistic effect
effect on toxicity of pirimiphos-methyl [2]: synergized
effect on coumaphos toxicity [3]: substantially as described in Example 1
effect on diazinon toxicity [3]: substantially as described in Example 1
effect on pirimiphos-methyl toxicity [3]: substantially as described in Example 1
effect on toxicity of chlorpyrifos [3]: did synergize
synergism with diazinon ([4]; 0.1 or 0.05% diazinon, weaker than with coumaphos): Synergism was also observed
effect on coumaphos toxicity ([4]; 1% atrazine with 0.3, 0.6 or 1.2% w/v coumaphos, first trial, 24 h): dramatically increased
mortality ([4]; atrazine with 0.3% coumaphos, atrazine/coumaphos ratio 2/1, 24 h): 100%
effect on chlorpyrifos toxicity ([4]; high atrazine/chlorpyrifos ratios (8/1 and above)): synergized
effect on toxicity of 0.3% coumaphos ([4]; varying atrazine concentrations, even at atrazine/coumaphos ratio 0.25/1, second trial): strongly synergized
toxicity of atrazine alone ([5]; all concentrations except 0.8%): virtually non-toxic
mortality ([5]; atrazine alone at 0.8%): 5.2%
synergism with coumaphos ([5]; combined with 0.1% coumaphos, even at lowest atrazine/coumaphos ratio 0.125/1): significant synergism
effect on toxicity of chlorpyrifos ([6]; 0.01% chlorpyrifos): significantly enhanced
synergism with coumaphos ([6]; 0.01% coumaphos): varying levels of synergism
synergism with diazinon ([6]; higher diazinon concentration 0.05% (data not shown)): synergistic effect of atrazine was observed even at low atrazine/diazinon ratios
synergism with diazinon ([6]; very low diazinon 0.005%, ratio 32/1): only provided a synergistic effect at high atrazine/diazinon ratios
mortality (brown dog tick larvae; atrazine alone 0.8%): 25.7%
mortality (brown dog tick larvae; atrazine alone 1.0%): 18.9%
mortality (brown dog tick larvae; atrazine alone at or below 0.4%): less than 4%
effect on coumaphos toxicity ([7]; 0.1% coumaphos, atrazine/coumaphos ratio 2/1 and above, both trials): significantly enhanced
effect on toxicity of diazinon ([7]; 0.25% diazinon): significantly enhanced
synergism with coumaphos ([1]; 0.05% coumaphos, atrazine/coumaphos ratios of 2/1 and above): Significant synergism
synergism with diazinon ([1]; diazinon 0.025%, similar ratios, to a lesser extent than coumaphos): Synergism was also observed

CCOP(=S)(OCC)Oc1ccc2c(C)c(Cl)c(=O)oc2c1 [coumaphos]
effect on larvae (mortality) ([4]; 0.3% coumaphos alone, 24 h): virtually no effect
resistance of the strain to the acaricide ([4]; compared with all strains tested): highest resistance
mortality ([6]; coumaphos alone 0.01%, similar to the control): 36%
mortality (brown dog tick larvae; 0.035% coumaphos used with the synergist atrazine (1%)): greater than 60%
effect on larvae (brown dog tick larvae; higher concentrations): mortality increased
effect on larvae (brown dog tick larvae; less than or equal to 0.035%): no effect
mortality ([7]; first trial): 42.6%
mortality ([7]; repeated trial): 10.1%
resistance of the strain [7]: low resistance
resistance of the strain [1]: 5.5 fold
mortality ([1]; coumaphos alone at 0.05%): 28.9%

CCOP(=S)(OCC)Oc1cc(C)nc(C(C)C)n1 [diazinon]
resistance of the strain [7]: very high level of resistance
resistance of the strain [1]: 2.6 fold

CC1(C)C(C=C(Cl)Cl)C1C(=O)OCc1cccc(Oc2ccccc2)c1 (stereo not shown) [permethrin]
resistance of the strain [1]: 200 fold

CC(C)Nc1nc(Cl)nc(NC(C)C)n1 [propazine]
effect on toxicity of chlorpyrifos [2]: neither atrazine nor propazine had any effect
effect on toxicity of coumaphos [2]: reduced the toxicity
effect on toxicity of pirimiphos-methyl [2]: synergized
effect on coumaphos toxicity [3]: substantially as described in Example 1
effect on diazinon toxicity [3]: substantially as described in Example 1
effect on pirimiphos-methyl toxicity [3]: substantially as described in Example 1
effect on toxicity of chlorpyrifos [3]: did synergize
